Test results as given in US7332601B2, “CCI-779 derivatives and methods of making same” (Wyeth, priority 2004, dated 2008).

Columns and labels:
CYP450 2A6 = target: T1, CYP450 2A6 (Homo sapiens, UniProt P11509); assay: Generation of CCI-779 derivatives by CYP450 isozyme incubation; type: in vitro ADME
T1 sequence (P11509 1-494): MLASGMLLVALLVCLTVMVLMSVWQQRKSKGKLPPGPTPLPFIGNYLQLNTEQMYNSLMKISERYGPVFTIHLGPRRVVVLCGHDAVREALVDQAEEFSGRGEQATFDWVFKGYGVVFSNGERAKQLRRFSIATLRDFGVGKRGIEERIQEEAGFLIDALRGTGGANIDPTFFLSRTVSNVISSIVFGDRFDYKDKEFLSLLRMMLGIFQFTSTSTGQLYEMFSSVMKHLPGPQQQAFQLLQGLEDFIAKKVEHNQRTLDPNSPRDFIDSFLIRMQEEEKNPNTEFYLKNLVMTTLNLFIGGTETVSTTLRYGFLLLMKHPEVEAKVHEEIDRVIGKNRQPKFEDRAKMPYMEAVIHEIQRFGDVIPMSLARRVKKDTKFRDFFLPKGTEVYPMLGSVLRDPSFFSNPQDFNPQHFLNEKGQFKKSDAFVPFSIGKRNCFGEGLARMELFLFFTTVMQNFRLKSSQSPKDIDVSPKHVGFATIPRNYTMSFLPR

[1] = test system: human tumor xenografts of diverse histological types; details: nude mice, cited from earlier work
[2] = test system: human glioblastoma cell line; details: human glioblastoma cell line in vitro; cited from earlier work
CYP450 2E1 = CYP450 2E1 (Homo sapiens, UniProt P05181); assay: Generation of CCI-779 derivatives by CYP450 isozyme incubation; type: in vitro ADME
CYP450 2E1, sequence (P05181 whole entry): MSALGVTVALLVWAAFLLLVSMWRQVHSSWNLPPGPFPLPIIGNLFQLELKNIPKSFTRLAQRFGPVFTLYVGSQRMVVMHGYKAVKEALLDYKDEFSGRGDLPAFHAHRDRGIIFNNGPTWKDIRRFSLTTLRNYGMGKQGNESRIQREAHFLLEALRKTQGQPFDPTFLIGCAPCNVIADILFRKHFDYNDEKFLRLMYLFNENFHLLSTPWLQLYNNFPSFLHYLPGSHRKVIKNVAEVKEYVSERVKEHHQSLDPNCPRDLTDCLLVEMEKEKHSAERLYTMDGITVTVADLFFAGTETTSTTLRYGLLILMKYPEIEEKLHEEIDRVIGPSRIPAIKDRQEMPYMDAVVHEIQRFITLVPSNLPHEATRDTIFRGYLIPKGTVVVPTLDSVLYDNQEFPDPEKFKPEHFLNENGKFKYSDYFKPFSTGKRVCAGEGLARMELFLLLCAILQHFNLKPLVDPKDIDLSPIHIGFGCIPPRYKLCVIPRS

CYP450 2C9 = CYP450 2C9 (Homo sapiens, UniProt P11712); assay: as above; type: in vitro ADME
CYP450 2C9, sequence (P11712 whole entry): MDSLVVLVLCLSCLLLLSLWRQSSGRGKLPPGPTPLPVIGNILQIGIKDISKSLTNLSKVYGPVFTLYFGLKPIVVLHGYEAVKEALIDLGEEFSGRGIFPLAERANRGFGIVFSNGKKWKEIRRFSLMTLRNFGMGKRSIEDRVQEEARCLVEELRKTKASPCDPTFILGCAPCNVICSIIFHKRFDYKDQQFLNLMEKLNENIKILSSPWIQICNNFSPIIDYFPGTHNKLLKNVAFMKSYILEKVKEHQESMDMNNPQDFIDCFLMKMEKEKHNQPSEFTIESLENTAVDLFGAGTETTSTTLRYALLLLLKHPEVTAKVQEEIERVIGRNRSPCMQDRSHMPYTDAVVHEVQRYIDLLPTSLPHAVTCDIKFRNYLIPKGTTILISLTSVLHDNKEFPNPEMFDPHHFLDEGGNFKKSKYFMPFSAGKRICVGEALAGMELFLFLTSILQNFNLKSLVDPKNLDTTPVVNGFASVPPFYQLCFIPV

human pancreatic tumors = details: several human pancreatic tumors in nude mice; cited from earlier work
orthotopic glioma model = details: nude mice; cited from earlier work
[3] = test system: histologically diverse tumor cells; details: cited from earlier work
breast cancer lines = details: one of two breast cancer lines studied in vivo; cited from earlier work
CYP450 2C19 = CYP450 2C19 (Homo sapiens, UniProt P33261); assay: Generation of CCI-779 derivatives by CYP450 isozyme incubation; type: in vitro ADME
CYP450 2C19, sequence (P33261 whole entry): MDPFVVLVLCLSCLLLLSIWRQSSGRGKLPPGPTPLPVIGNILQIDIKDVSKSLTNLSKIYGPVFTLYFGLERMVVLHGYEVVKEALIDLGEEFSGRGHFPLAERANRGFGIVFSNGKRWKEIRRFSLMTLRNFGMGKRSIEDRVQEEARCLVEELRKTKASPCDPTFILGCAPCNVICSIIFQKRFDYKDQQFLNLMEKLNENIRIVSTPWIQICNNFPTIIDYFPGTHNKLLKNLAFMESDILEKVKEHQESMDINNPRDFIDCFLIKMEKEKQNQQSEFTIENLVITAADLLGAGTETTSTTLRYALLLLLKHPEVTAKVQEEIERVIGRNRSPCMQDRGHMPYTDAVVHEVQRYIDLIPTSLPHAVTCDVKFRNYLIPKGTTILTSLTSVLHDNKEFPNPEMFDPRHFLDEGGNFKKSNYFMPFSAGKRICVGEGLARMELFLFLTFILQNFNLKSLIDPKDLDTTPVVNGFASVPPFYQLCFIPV

CYP450 2C8 = target: T2, CYP450 2C8 (Homo sapiens, UniProt P10632); assay: as above; type: in vitro ADME
T2 sequence (P10632 1-490): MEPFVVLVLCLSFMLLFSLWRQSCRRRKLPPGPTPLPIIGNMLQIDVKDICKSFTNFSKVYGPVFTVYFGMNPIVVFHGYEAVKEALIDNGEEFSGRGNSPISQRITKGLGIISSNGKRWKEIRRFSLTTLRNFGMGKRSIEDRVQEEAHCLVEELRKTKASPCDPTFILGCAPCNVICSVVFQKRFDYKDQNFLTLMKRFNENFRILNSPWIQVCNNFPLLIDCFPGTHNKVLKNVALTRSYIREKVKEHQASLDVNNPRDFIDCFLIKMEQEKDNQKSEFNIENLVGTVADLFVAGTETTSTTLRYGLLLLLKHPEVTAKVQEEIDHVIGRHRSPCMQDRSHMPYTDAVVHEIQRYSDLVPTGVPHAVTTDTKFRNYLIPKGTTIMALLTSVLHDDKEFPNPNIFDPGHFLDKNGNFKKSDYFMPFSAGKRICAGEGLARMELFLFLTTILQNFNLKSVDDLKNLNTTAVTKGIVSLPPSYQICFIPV

CYP3A4 = target: T3, CYP3A4 (Homo sapiens, UniProt P08684); assay: as above; type: in vitro ADME
T3 construct: host or cells: E. coli (membrane preparation)
T3 sequence (P08684 whole entry): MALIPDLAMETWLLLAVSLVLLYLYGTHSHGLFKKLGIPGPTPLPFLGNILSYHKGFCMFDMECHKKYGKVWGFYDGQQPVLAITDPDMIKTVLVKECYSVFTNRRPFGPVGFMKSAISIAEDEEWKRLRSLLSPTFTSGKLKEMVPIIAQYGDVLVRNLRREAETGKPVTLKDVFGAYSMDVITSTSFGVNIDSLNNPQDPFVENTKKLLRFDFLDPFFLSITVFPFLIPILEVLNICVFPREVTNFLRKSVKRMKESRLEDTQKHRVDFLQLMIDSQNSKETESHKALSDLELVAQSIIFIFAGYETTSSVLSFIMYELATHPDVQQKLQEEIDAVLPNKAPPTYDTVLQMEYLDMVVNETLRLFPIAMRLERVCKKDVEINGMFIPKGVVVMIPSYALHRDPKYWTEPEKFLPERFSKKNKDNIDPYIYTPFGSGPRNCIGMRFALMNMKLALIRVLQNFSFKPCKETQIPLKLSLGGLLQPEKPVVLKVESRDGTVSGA
Protocol: The invention provides a method of generating specific derivatives of CCI-779 by incubating CCI-779 with membranes of recombinant E. coli cells expressing human cytochrome P450-3A4 isozymes.
In order to generate the specific hydroxylation derivatives of the invention, CCI-779 and CYP3A4 may be incubated in the presence of a reducing agent, such as NADH or NADPH. Suitably, CCI-779 and the enzyme can be present in a ratio of 300:1 to 500:1, and desirably about 330:1 CCI-779 to enzyme. In the examples below, these components are mixed to a final concentration of 0.1 mM CCI-779, 300 nM 3A4 enzyme, and 2 mM NADPH regenerate system. However, other concentrations can be readily used.
To a 5L reactor containing CCI-779 514 mg (0.5 mmol), MgCl2 (0.4 M×100 ml), NADPH generating system (NADP sodium salt: 75 mg×100 mL, D-glucose-6-phospate: 60 mg/mL×100 mL; glucose-6-phosphate dehydrogenase: 25 units/mL×100 mL), and E. coli-expressed CYP-3A4 membrane (1500 nmol) was added potassium phosphate buffer solution to 5L. The mixture solution was incubated at 37° C. under oxygen atmosphere (sparging O2 at 0.3 L/min) with agitation of 125 rpm for one hour. After one-hour reaction, the reaction solution was cooled down to 25° C. on an ice bath and extracted with an equal volume of ethyl acetate twice. […]

CO[C@H]1CC2CC[C@@H](C)[C@@](O)(O2)C(=O)C(=O)N2CCCC[C@H]2C(=O)O[C@H]([C@H](C)C[C@@H]2CC[C@@H](OC(=O)C(C)(CO)CO)[C@H](OC)C2)CC(=O)[C@H](C)/C=C(\C)[C@@H](O)[C@@H](OC)C(=O)[C@H](C)C[C@H](C)/C=C/C=C/C=C/1C [CCI-779, Rapamycin 42-ester with 2,2-bis(hydroxymethyl)propionic acid]
generation of CCI-779 derivatives by the enzyme (CYP450 2A6): not able to generate these derivatives | sensitivity of gliomas ([1]; gliomas): particularly sensitive | activity against human tumor xenografts [1]: has activity | growth factor (platelet-derived)-induced stimulation [2]: markedly suppressed | generation of CCI-779 derivatives by the enzyme (CYP450 2E1): not able to generate these derivatives | generation of CCI-779 derivatives by the enzyme (CYP450 2C9): not able to generate these derivatives | tumor growth (human pancreatic tumors): inhibited | activity in orthotopic glioma model (orthotopic glioma model): active | sensitivity of tumor lines ([3]; CNS cancer, leukemia (T-cell), breast cancer, prostate cancer and melanoma lines): among the most sensitive | inhibition of growth of tumor cells ([3]; in vitro, a number of histologically diverse tumor cells): inhibit the growth | cell cycle effect ([3]; in vitro): arrested cells in the G1 phase | tumor growth (breast cancer lines): inhibited | generation of CCI-779 derivatives by the enzyme (CYP450 2C19): not able to generate these derivatives | generation of CCI-779 derivatives by the enzyme (CYP450 2C8): not able to generate these derivatives | generation of CCI-779 derivatives by the enzyme (CYP3A4): the only member of this family of enzymes to specifically generate CCI-779 derivatives
